`O=C(C=Cc1cccnc1)NCCCCC1CCN(C(=O)c2cccc3c2-c2ccccc2C3=O)CC1` had a melting point of 80 to 82 °C.
In the case of `CCC(O)c1c(S(N)(=O)=O)nn(C)c1C(C)(C)C` (configuration not stated) it was 113 to 115 °C; in that of `COc1ccccc1S(=O)(=O)N(C)c1cccc2cc(C3=NCC(CC(=O)Nc4nnc[nH]4)S3)[nH]c12` (configuration not stated), 208 to 209 °C; in that of `COc1cc(C)nc2c(OCc3c(Cl)ccc(NC(=O)CN4C(=O)c5ccccc5C4=O)c3Cl)cccc12`, 184 to 185 °C.
In the case of `CC(C)(C)c1cc(S[C@@H]2CCCC[C@H]2O)cc(C(C)(C)C)c1O` (relative stereo) it was 91 °C; in that of `C=CCOC(=O)C(C)(C)ON1C(=O)c2ccccc2C1=O`, 51 to 53 °C; in that of `NC(=O)c1sc(-c2ccccc2)cc1N`, 180 to 182 °C.
In the case of `COc1cccc(NC(=O)c2ccc(F)c([N+](=O)[O-])c2)c1` it was 145 to 146 °C; in that of `CCCCOc1c(CNC(=O)OC(C)(C)C)n(CC(C)C)c(=O)c2ccc(-c3nc(C(=O)OCC)cs3)cc12`, 172 °C; in that of `CCCOc1ccc(CCl)cc1-c1nc2c(CCC)nn(C)c2c(=O)[nH]1`, 102 to 104 °C.
The molecule `CC(C)(C)C(NC(=O)Cc1ccc2c(c1)OCCO2)NC(=NC#N)Nc1cccc2ncccc12` (configuration not stated) returned a melting point of 191 to 192 °C.
`COCc1ccc(C(=O)N[C@H](Cc2ccc(C(F)(F)F)cc2)[C@@H](O)c2ccc(F)cc2)c2ccccc12` (racemic) came in with a melting point of 170 to 171 °C.
In the case of `CCOC(=O)[C@H]1CCCN2CCc3c([nH]c4ccc(Cl)cc34)[C@@H]12` (racemic) it was 88 to 90 °C; in that of `CC1(C)NC(=O)N(c2ccc(F)c(C(F)(F)F)c2)C1=O`, 111 to 114 °C.
For `Cc1oc(-c2ccccc2)nc1COc1ccc(C=CC=O)cc1`, the melting point lay within 114 to 115 °C.
In the case of `O=S(=O)(Oc1cccc(O)c1)c1ccc(Cl)c(Cl)c1` it was 107 to 110 °C; in that of `O=C1OCCN1c1ccc(NCC(O)CO)c([N+](=O)[O-])c1` (configuration not stated), 150 °C; in that of `CC(=O)Nc1cc2c(cc1C#N)C=CC(C)(C)O2`, 136 to 137 °C.
In turn, `CCOC(=O)/C(=C/c1ccccc1)OC(C)=O` yielded a melting point of 41 to 47 °C.
In the case of `C#CC1(O)CCC2(C)C(CCC3C2CCC2(C)C(C(=O)CO)CCC32)C1` (configuration not stated) it was 156 to 157 °C; in that of `CCN1CCC(c2ccccc2)=C(C(=O)OCC2CCCCC2)C1`, 94 to 97 °C; in that of `Cc1cc(C)cc(NC(=O)Nc2ccc(-c3c(C(N)=O)[nH]c4ccccc34)cc2)c1`, 168 to 170 °C.
In the case of `CN1CCN(C2=Nc3ccccc3Nc3nn(C)nc32)CC1` it was 182 to 184 °C.
In the case of `COc1ccc(S(=O)(=O)CC(O)(CS(=O)(=O)c2ccc(-c3ccccc3)cc2)C(=O)NO)cc1` (configuration not stated) it was 72 to 76 °C; in that of `CCOC1(c2nc3ccccc3s2)C=CC(=O)C=C1`, 59 °C; in that of `FC(F)(F)c1[nH]c(-c2ccc(Cl)cc2)c(Br)c1C(F)(F)F`, 64.5 to 65 °C.
Turning to `O=c1[nH]nc(-c2ccc(-n3ccnc3)cc2)c2ccccc12`, the melting point is 310 to 311 °C.
In the case of `COc1ccc(SCCNC(=O)c2ccc(OCC=C(C)CCC=C(C)C)cc2)nc1` it was 82.6 to 83.4 °C; in that of `Cc1cccc(-c2nc(N)sc2-c2ccnc(NCc3ccccc3)c2)c1`, 178 to 179 °C.
In the case of `CN(CCc1ccc([N+](=O)[O-])cc1)Cc1cc2cc([N+](=O)[O-])ccc2s1` it was 76 to 78 °C.
In the case of `O=C(c1ccc2nonc2c1)N(C1CCOCC1)C1CC1` it was 108 to 109 °C; in that of `COc1cc2c(cc1S(=O)(=O)c1ccc(C)cc1)[C@@H](N1CCCCC1=O)[C@H](O)C(C)(C)O2` (relative stereo), 261 to 263 °C.
Turning to `Cc1ccccc1C1NS(=O)(=O)c2ccccc21` (single isomer, unassigned; (+)), the melting point is 109 to 111 °C.
In the case of `Brc1nccc2ncccc12` it was 112 to 113 °C; in that of `COC(=O)CCc1ccc(CBr)cc1`, 38 to 42 °C.
In the case of `CCOC(=O)C(C)=NN(C)c1ccc(C(F)(F)F)cc1` it was 71 to 72 °C; in that of `CC(C)(C)OC(=O)C[C@@H](CC1CCCC1)C(=O)N1CCCCC1`, 38 to 40 °C; in that of `O=C(NCc1ccc(Cl)cc1)c1ccc2sc(CN3CCOCC3)cc2c1O`, 200 °C.
In the case of `O=C(c1ccncc1)[N+]1([O-])CCC(C(O)(c2ccc(Cl)cc2)c2nccs2)CC1` (configuration not stated) it was 215 to 217 °C; in that of `N#Cc1cc(-c2ccoc2)c2ccc(Sc3cccc(-c4ccccc4)n3)cc2c1`, 143 to 146 °C; in that of `COC(=O)C(Oc1cc(OCc2ccc3ncoc3c2)ccc1C#N)c1ccccc1Cl` (racemic), 157 to 159 °C.
The molecule `COc1cc2[nH]c(=O)c3c(c2cc1OC)CCN(CCC1CCCCC1)C3` gave a melting point of 195 to 198 °C.
In the case of `CN1C(=O)C(CN2CCCCC2)CC1C1CC1c1ccccc1Cl` (configuration not stated) it was 87 to 90 °C.
In the case of `CN1CCN(c2cc(Cl)cc3c2c(=O)n(Cc2cccc(F)c2)c(=O)n3Cc2ccccc2)CC1` it was 148 to 150 °C; in that of `NS(=O)(=O)c1cccc(-c2cn(-c3nc(-c4ccc(F)c(F)c4)cc(C(F)(F)F)n3)cn2)c1`, 242 °C.
In the case of `Oc1ccc2c(c1)C[C@@H](NC[C@H](O)c1ccc(OCc3ccccc3)c(CCOCc3ccccc3)c1)CC2` it was 147 to 150 °C; in that of `Cc1oc(C(N)=O)c(C)c1-c1nc2ccc(C(=O)c3ccccc3)cc2[nH]1`, 143 to 146 °C; in that of `CC(C)(C)c1ccccc1N1CCN(C(=O)CCC#N)CC1`, 109 to 110 °C.
`Cc1oc(-c2ccc(C(F)(F)F)cc2)cc1CC(=O)O` displayed a melting point of 123 to 125 °C.
In the case of `COC(=O)C1=C(C)N(CCCN2CCCCC2)c2cc[nH]c(=O)c2C1c1ccccc1C(F)(F)F` (configuration not stated) it was 168 to 170 °C.
In the case of `CCN(CC)CCOc1ccc(Nc2ncc3c(n2)N(C)C(=O)N(c2c(Cl)cccc2Cl)C3)cc1` it was 123 to 124 °C; in that of `CC(CN1CC(=O)N(CN2CCN(C)CC2)C(=O)C1)N1CC(=O)N(CN2CCN(C)CC2)C(=O)C1` (configuration not stated), 93 to 96 °C.
`COCCOc1ccc(CCCNS(=O)(=O)Cc2ccccc2)c(Oc2ncc(C(F)(F)F)cc2Cl)c1` yielded a melting point of 97 to 100 °C.
In the case of `CC(C)(C)OC(=O)[C@H]1CC[C@@H](c2ccccc2)N1C(=O)CNC(=O)Nc1ccc(O)c(C(=O)O)c1` (racemic) it was 190 °C.
In the case of `CC(C)(C)OCc1cc(C(C)(C)C)cc(COC(C)(C)C)c1SSc1c(COC(C)(C)C)cc(C(C)(C)C)cc1COC(C)(C)C` it was 120 to 121 °C; in that of `CCOC(=O)N1CCN(c2ccc(-n3cc[nH]c3=O)cc2)CC1`, 196 °C; in that of `CCCc1ccc2nc(C(F)(F)F)c(S(N)(=O)=O)n2n1`, 151 to 152 °C.
In the case of `COC(=O)C1Cc2c([nH]c3ccccc23)C(c2ccc(O)c(OC)c2)N1` (configuration not stated) it was 195 °C; in that of `CCn1cc(-c2cnccn2)cc(Br)c1=O`, 129 to 132 °C.
The molecule `CC(C)Oc1ccc(-c2nn([C@@H](C)c3oc4ccc(F)cc4c(=O)c3-c3cccc(F)c3)c3ncnc(N)c23)cc1F` had a melting point of 139 to 142 °C.
In turn, `COc1ccc(C2=NN(C3CCCC3)C(=O)[C@H]3CC=CC[C@@H]23)cc1OC` (relative stereo) yielded a melting point of 131 to 133 °C.
`OC1(c2cccc(OCc3ccccc3)c2)CCOCC1`: the melting point lay in the range of 84 to 86 °C.
In the case of `COc1cc2c(cc1OC)-c1cc(=Nc3c(C)cc(C)cc3C)n(C(C)C)c(=O)n1CC2` it was 178 to 179 °C; in that of `COC(=O)c1ccc2c(c1)NC(=O)C(CCO)O2` (configuration not stated), 167 to 169 °C.
In the case of `CC(C)(C)C(=O)C(Oc1ccc(Cl)cc1)c1ccccc1` (configuration not stated) it was 103 °C; in that of `O=Cc1ccc(CSCCN2C(=O)c3ccccc3C2=O)o1`, 76 to 77 °C.
In the case of `O=C1C(=O)c2ccccc2C2=C1SCC(CNCc1ccccc1)O2` (configuration not stated) it was 60 to 62 °C; in that of `CC(CCCCCOCCc1ccc(N(C)C)cc1)NCc1c(CO)ccc(O)c1CO` (configuration not stated), 100 to 101 °C.
As for `CC(C)Cn1c(CNC(=O)OC(C)(C)C)c(-c2ccccc2)c2cc(/C=C/C(N)=O)ccc2c1=O`, the melting point was 146 to 147 °C.
In the case of `CCCCc1nc2cccc(C(=O)OCOC(=O)C(C)(C)C)c2n1Cc1ccc(-c2ccccc2-c2nnn[nH]2)cc1` it was 102 to 105 °C; in that of `Cc1ccnc2c1nc(COc1ccc(CC3SC(=O)N(C(c4ccccc4)(c4ccccc4)c4ccccc4)C3=O)cc1)n2C` (configuration not stated), 92 to 105 °C.
`Cc1ccccc1CNC[C@@H]1C[C@@H](S)CN1S(=O)(=O)c1ccc2ccccc2c1` showed a melting point of 122 °C.
In the case of `CC(Cl)(Cl)C(NC(=O)c1cc(F)cc(F)c1)NC(=NC#N)Nc1ccc(C(F)(F)F)nc1` (configuration not stated) it was 202 to 203 °C.
With `CN1c2ccc([N+](=O)[O-])cc2C(C)(C)C12C=Nc1cc(-c3ccc(N4CCCC4)cc3)c3ccccc3c1O2` (configuration not stated), the melting point lay within 260 to 262 °C.
In the case of `O=C1c2ccccc2C(=O)N1CCCC(c1ccc(F)cc1)c1ccc(F)cc1` it was 69 to 70 °C; in that of `CC(=O)NCC(=O)Nc1cc(Cl)cc(Nc2ncnc3[nH]cc(C(=O)c4ccccc4)c23)c1`, over 300 °C; in that of `CCOC(=O)Nc1ccc2c(c1)C(c1ccccc1Cl)SCCC(=O)N2` (configuration not stated), 229 to 231 °C.
In the case of `Nc1nc2sc(CCC3CCCCC3)nn2c(=O)c1[N+](=O)[O-]` it was 249 to 251 °C; in that of `COc1ccc(-c2ccc(C(=O)Nc3ccc4cc(CN5C(C)CCCC5C)ccc4c3)cc2)cc1` (configuration not stated), 199 to 200 °C; in that of `CCCCCCCCCCCCCCCCCCOC(=O)c1ccc(N)cc1`, 60 to 70 °C.
In the case of `Cc1cc(Nc2c(C#N)cnc3cc(-c4csc(CN5CCOCC5)c4)ccc23)ccc1OCc1ccccn1` it was 217 to 219 °C; in that of `COc1nc(N)c(Cl)cc1C(=O)CCC1CCN(CC(O)C(C)(C)C)CC1` (configuration not stated), 134 °C.

The record behind these values is a melting point compilation (Tetko et al.; mined from patent text by program, amines drawn as free bases though some values may be those of a salt).
